Results published in patent US10368545B2, “Substituted 2-thioimidazolylcarboxamides as pesticides” (BAYER CROPSCIENCE AKTIENGESELLSCHAFT, priority 2015, dated 2019).
Several values for one entry are separate records, joined by “and”; a condition that tells them apart may be missing. Equal values may be shown once. Read-outs that look alike come from different tables or passages of the source.

Key:
[1] = log P by HPLC on reversed-phase C18 columns (OECD Guideline 117); type: physicochemical; settings: for chromatographic logP: reversed-phase C18 HPLC column; for logP[a]: method [a]; for logP[b]: method [b]
Description: The log P values were determined in accordance with OECD Guideline 117 (EC Directive 92/69/EEC) by HPLC (high-performance liquid chromatography) using reversed-phase (RP) columns (C18), by the following methods:
[a] The LC-MS determination in the acidic range was carried out at pH 2.7 with 0.1% aqueous formic acid and acetonitrile (contains 0.1% formic acid) as mobile phases; linear gradient from 10% acetonitrile to 95% acetonitrile.
[b] LC-MS determination in the neutral range was carried out at pH 7.8 with 0.001 molar aqueous ammonium hydrogencarbonate solution and acetonitrile as mobile phases; linear gradient from 10% acetonitrile to 95% acetonitrile.

[2] = test system: green peach aphid (Myzus persicae); assay: Myzus persicae spray test (Chinese cabbage leaf discs); type: in vivo; settings: after 5 or 6 days, Chinese cabbage leaf discs; for pest or weed control at 500 g/ha: Myzus persicae, foliar, read-out: efficacy (aphids killed)
Description: Myzus persicae—Spray Test
Solvent: 78 parts by weight of acetone • • 1.5 parts by weight of dimethylformamide
(§1) Emulsifier: alkylaryl polyglycol ether
(§2) To produce a suitable active compound preparation, 1 part by weight of active compound is dissolved using the stated parts by weight of solvent and made up with water containing an emulsifier concentration of 1000 ppm until the desired concentration is attained. To produce further test concentrations, the preparation is diluted with emulsifier-containing water.
Discs of Chinese cabbage leaves (Brassica pekinensis) infested by all stages of the green peach aphid (Myzus persicae) are sprayed with an active compound preparation of the desired concentration.
After 5 or 6 days, the efficacy in % is determined. 100% means that all the aphids were killed; 0% means that no aphids were killed.

[3] = test system: green peach aphid (Myzus persicae); assay: Contrasting example: Myzus persicae spray test (MYZUPE); type: in vivo; settings: MYZUPE, 100 g ai/ha, 6 dat; for pest or weed control at 100 g/ha: Myzus persicae, 144 h, read-out: % efficacy
Description: Myzus persicae—Spray Test (MYZUPE)
Solvents: 78.0 parts by weight of acetone • • 1.5 parts by weight of dimethylformamide
as §1, §2
Discs of Chinese cabbage leaves (Brassica pekinensis), infested by all stages of the green peach aphid (Myzus persicae) are sprayed with an active compound preparation of the desired concentration.
After the desired period of time, the efficacy in % is determined. 100% means that all aphids were killed; 0% means that no aphids were killed.

[4] = pH 2.7, acidic range, pH 2.7, 0.1% aqueous formic acid / acetonitrile, read-out: log P[a]
[5] = pH 7.8, neutral range, pH 7.8, 0.001 molar aqueous ammonium hydrogencarbonate / acetonitrile, read-out: log P[n]
[6] = pH 2.7, method [a], read-out: logP[a]
[7] = pH 7.8, method [b], read-out: logP[b]

In the case of `Cc1cc(C)nc(Sc2ncc(C(=O)N(C)c3cccnc3)n2C)n1` [I-A-1], the “log P[a]” value ([1]; acidic range, pH 2.7, 0.1% aqueous formic acid / acetonitrile) is reported as 1.26, the “log P[n]” value ([1]; neutral range, pH 7.8, 0.001 molar aqueous ammonium hydrogencarbonate / acetonitrile) is reported as 1.46 and the chromatographic logP [1, 4] is reported as 1.31. For the same compound, the chromatographic logP [1, 5] was 1.41, the pest or weed control at 500 g/ha ([2]; application rate 500 g/ha) was 100% and the pest or weed control at 100 g/ha [3] was 100%.

For `CN(C(=O)c1cnc(SCC2CC2)n1C)c1cccnc1` [I-A-2], the chromatographic logP [1, 4] was 1.28, the chromatographic logP [1, 5] was 1.81 and the pest or weed control at 500 g/ha ([2]; application rate 500 g/ha) was 100%. It also gave a pest or weed control at 100 g/ha [3] of 90%.

Compound `CN(C(=O)c1cnc(Sc2ncccn2)n1C)c1cccnc1` [I-A-3] has a chromatographic logP [1, 4] of 0.69, a chromatographic logP [1, 5] of 0.98 and a pest or weed control at 500 g/ha ([2]; application rate 500 g/ha) of 100%. The pest or weed control at 100 g/ha [3] was 90%.

In the case of `CCCCSc1ncc(C(=O)N(C)c2cccnc2)n1C` [I-A-5], the “logP[a]” value [1] is reported as 1.67, the “logP[b]” value [1] is reported as 1.99 and the “efficacy (aphids killed)” value ([2]; application rate 500 g/ha) is reported as 90%. For the same compound, the “% efficacy” value [3] was 100%.

With `CN(C(=O)c1cnc(S(C)(=O)=O)n1C)c1cccnc1` [I-A-8] the “logP[a]” value [1] was 0.45, the “logP[b]” value [1] was 0.67 and the “efficacy (aphids killed)” value ([2]; application rate 500 g/ha) was 100%. For the same compound, the “% efficacy” value [3] was 90%.

For `CSc1cccc(Sc2ncc(C(=O)N(C)c3cccnc3)n2C)c1` [I-A-9], the “logP[a]” value [1] was 2.0, the “logP[b]” value [1] was 2.12 and the “efficacy (aphids killed)” value ([2]; application rate 20 g/ha) was 90%. For the same compound, the “% efficacy” value [3] was 70%.

With `CN(C(=O)c1cnc(SCC(F)(F)F)n1C)c1cccnc1` [I-A-10] the “logP[a]” value [1] was 1.41, the “logP[b]” value [1] was 1.54 and the “efficacy (aphids killed)” value ([2]; application rate 500 g/ha) was 100%. The “% efficacy” value [3] was 100%.

With `CN(C(=O)c1cnc(Sc2ccccc2)n1C)c1cccnc1` [I-A-11] the “logP[a]” value [1] was 1.55, the “logP[b]” value [1] was 1.75 and the “efficacy (aphids killed)” value ([2]; application rate 500 g/ha) was 100%. The “% efficacy” value [3] was 90%.

In the case of `Cc1ccc(Sc2ncc(C(=O)N(C)c3cccnc3)n2C)cc1` [I-A-12], the “logP[a]” value [1] is reported as 1.89, the “logP[b]” value [1] is reported as 2.03 and the “efficacy (aphids killed)” value ([2]; application rate 500 g/ha) is reported as 90%. The “% efficacy” value [3] was 70%.

For `CCSCCSc1ncc(C(=O)N(C)c2cccnc2)n1C` [I-A-14], the “logP[a]” value [1] was 1.61, the “logP[b]” value [1] was 1.87 and the “efficacy (aphids killed)” value ([2]; application rate 500 g/ha) was 90%. The “% efficacy” value [3] was 90%.

With `COCCSc1ncc(C(=O)N(C)c2cccnc2)n1C` [I-A-18] the “logP[a]” value [1] was 0.76, the “logP[b]” value [1] was 1.14 and the “efficacy (aphids killed)” value ([2]; application rate 500 g/ha) was 100%. The “% efficacy” value [3] was 90%.

With `CC(C)Sc1ncc(C(=O)N(C)c2cccnc2)n1C` [I-A-19] the “logP[a]” value [1] was 1.23, the “logP[b]” value [1] was 1.53 and the “efficacy (aphids killed)” value ([2]; application rate 500 g/ha) was 100%. For the same compound, the “% efficacy” value [3] was 90%.

For `CCCSc1ncc(C(=O)N(C)c2cccnc2)n1C` [I-A-21], the “logP[a]” value [1] was 1.31, the “logP[b]” value [1] was 1.60 and the “efficacy (aphids killed)” value ([2]; application rate 500 g/ha) was 100%. For the same compound, the “% efficacy” value [3] was 100%.

With `CCOCCSc1ncc(C(=O)N(C)c2cccnc2)n1C` [I-A-22] the “logP[a]” value [1] was 1.04, the “logP[b]” value [1] was 1.41 and the “efficacy (aphids killed)” value ([2]; application rate 500 g/ha) was 100%. The “% efficacy” value [3] was 90%.

In the case of `CSCCSc1ncc(C(=O)N(C)c2cccnc2)n1C` [I-A-26], the “logP[a]” value [1] is reported as 1.23, the “logP[b]” value [1] is reported as 1.55 and the “efficacy (aphids killed)” value ([2]; application rate 500 g/ha) is reported as 100%. For the same compound, the “% efficacy” value [3] was 70%.

With `C=CCSc1ncc(C(=O)N(C)c2cccnc2)n1C` [I-A-27] the “logP[a]” value [1] was 1.08 and 1.11, the “logP[b]” value [1] was 1.40 and the “efficacy (aphids killed)” value ([2]; application rate 500 g/ha) was 90%. For the same compound, the “% efficacy” value [3] was 70%.

For `C#CCSc1ncc(C(=O)N(C)c2cccnc2)n1C` [I-A-30], the “logP[a]” value [1] was 0.87, the “logP[b]” value [1] was 1.22 and the “efficacy (aphids killed)” value ([2]; application rate 500 g/ha) was 90%. For the same compound, the “% efficacy” value [3] was 90%.

Work on `CNC(=O)C[S+]([O-])c1ncc(C(=O)N(C)c2cccnc2)n1C` (stereo not drawn) [I-A-43] yielded a chromatographic logP [1, 6] of 0.27, a chromatographic logP [1, 7] of 0.22 and a pest or weed control at 100 g/ha [3] of 70%.

In the case of `CN(C(=O)c1cnc(Sc2cc(Cl)c(Cl)cc2Cl)n1C)c1cccnc1` [I-A-56], the “logP[a]” value [1] is reported as 2.86, the “logP[b]” value [1] is reported as 2.92 and the “% efficacy” value [3] is reported as 70%.

With `CN(C(=O)c1cnc(Sc2cccc(C(F)(F)F)c2)n1C)c1cccnc1` [I-A-61] the “efficacy (aphids killed)” value ([2]; application rate 500 g/ha) was 90% and the “% efficacy” value [3] was 90%.

With `CN(C(=O)c1cnc(Sc2cccc([N+](=O)[O-])c2)n1C)c1cccnc1` [I-A-68] the “logP[a]” value [1] was 1.71, the “logP[b]” value [1] was 1.77 and the “efficacy (aphids killed)” value ([2]; application rate 500 g/ha) was 100%.

For `CN(C(=O)c1cnc(S(=O)(=O)c2cccc(Cl)c2)n1C)c1cccnc1` [I-A-73], the “logP[a]” value [1] was 1.81, the “logP[b]” value [1] was 1.87 and the “efficacy (aphids killed)” value ([2]; application rate 500 g/ha) was 90%.

For `CN(C(=O)c1cnc([S+]([O-])c2cccc(Cl)c2)n1C)c1cccnc1` (stereo not drawn) [I-A-74], the “logP[a]” value [1] was 1.45, the “logP[b]” value [1] was 1.55 and the “efficacy (aphids killed)” value ([2]; application rate 500 g/ha) was 90%.

For `CN(C(=O)c1cnc([S+]([O-])c2ccc(C(C)(C)C)cc2)n1C)c1cccnc1` (stereo not drawn) [I-A-75], the “logP[a]” value [1] was 2.14, the “logP[b]” value [1] was 2.19 and the “efficacy (aphids killed)” value ([2]; application rate 500 g/ha) was 90%.

With `CN(C(=O)c1cnc([S+]([O-])c2cc(Cl)cc(Cl)c2)n1C)c1cccnc1` (stereo not drawn) [I-A-77] the “efficacy (aphids killed)” value ([2]; application rate 500 g/ha) was 90% and the “% efficacy” value [3] was 70%.

`CN(C(=O)c1cnc(S(=O)(=O)c2ccc(F)cc2)n1C)c1ccc[n+]([O-])c1` [I-A-83] gave a chromatographic logP [1, 6] of 1.12, a chromatographic logP [1, 7] of 1.23 and a pest or weed control at 500 g/ha ([2]; application rate 500 g/ha) of 90%.

With `CCN(C(=O)c1cnc(Sc2ncccn2)n1C)c1cccnc1` [I-A-98] the “logP[a]” value [1] was 1.04, the “logP[b]” value [1] was 1.22 and the “efficacy (aphids killed)” value ([2]; application rate 500 g/ha) was 90%.

With `Cc1cnc(Sc2ncc(C(=O)N(C)c3cccnc3)n2C)nc1C` [I-A-103] the “logP[a]” value [1] was 1.23 and the “efficacy (aphids killed)” value ([2]; application rate 500 g/ha) was 100%.

For `Cc1ccc(Sc2ncc(C(=O)N(C)c3cccnc3)n2C)nc1` [I-A-109], the “efficacy (aphids killed)” value ([2]; application rate 500 g/ha) was 90% and the “% efficacy” value [3] was 70%.

In the case of `CN(C(=O)c1cnc(SCc2cccnc2)n1C)c1cccnc1` [I-A-119], the “logP[a]” value [1] is reported as 0.39, the “logP[b]” value [1] is reported as 1.15 and the “efficacy (aphids killed)” value ([2]; application rate 500 g/ha) is reported as 90%.

For `CN(C(=O)c1cnc(SCc2ccco2)n1C)c1cccnc1` [I-A-120], the “logP[a]” value [1] was 1.34, the “logP[b]” value [1] was 1.55 and the “efficacy (aphids killed)” value ([2]; application rate 500 g/ha) was 90%.

For `CN(C(=O)c1cnc(SCc2c(F)cccc2F)n1C)c1cccnc1` [I-A-123], the “logP[a]” value [1] was 1.69, the “logP[b]” value [1] was 1.92 and the “efficacy (aphids killed)” value ([2]; application rate 500 g/ha) was 90%.

In the case of `COc1cccc(F)c1CSc1ncc(C(=O)N(C)c2cccnc2)n1C` [I-A-124], the “logP[a]” value [1] is reported as 1.72, the “logP[b]” value [1] is reported as 2.03 and the “efficacy (aphids killed)” value ([2]; application rate 500 g/ha) is reported as 90%.

For `CN(C(=O)c1cnc(SCc2c(F)cccc2Cl)n1C)c1cccnc1` [I-A-127], the “logP[a]” value [1] was 1.89, the “logP[b]” value [1] was 2.09 and the “efficacy (aphids killed)” value ([2]; application rate 500 g/ha) was 90%.

In the case of `Cc1cc([N+](=O)[O-])nn1CSc1ncc(C(=O)N(C)c2cccnc2)n1C` [I-A-131], the “logP[a]” value [1] is reported as 1.28, the “logP[b]” value [1] is reported as 1.40 and the “efficacy (aphids killed)” value ([2]; application rate 500 g/ha) is reported as 90%.

With `CN(C(=O)c1cnc(SCC(=O)NC2CC2)n1C)c1cccnc1` [I-A-132] the “logP[a]” value [1] was 0.59, the “logP[b]” value [1] was 0.94 and the “efficacy (aphids killed)” value ([2]; application rate 500 g/ha) was 90%.
